Among the test systems are HS 578T breast; MOLT-4 leukemia; EKVX NSCLC; ACHN renal; CAKI-1 renal; SK-MEL-5 melanoma; HCT-15 colon; OVCAR-3 ovarian; NCI-H460 lung; SK-MEL-2 melanoma.
Holding throughout (assay): growth of human tumour cells (NCI), 48 h

Where “and” joins values, the source holds several entries; their conditions need not be identical. Equal values may be shown once.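 48-hour exposure; five concentrations; linearly interpolated endpoints. Abbreviation: GI50, concentration required for 50% inhibition of growth. TGI: concentration producing complete growth inhibition.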

The values below come from PubChem BioAssay (NCI).

Regarding `CC(C)C(OC(=O)c1cc(NC(=S)c2ccccc2)ccc1Cl)C(C)C`, the TGI with HS 578T breast was 69 µM; in the experiment on MOLT-4 leukemia, over 64.2 µM; in the experiment with EKVX NSCLC, over 86.4 µM; in the experiment with ACHN renal, 65.7 µM; in the experiment with CAKI-1 renal, 51.9 µM; in the experiment on SK-MEL-5 melanoma, 29.9 µM. Besides, the TGI in the experiment with HCT-15 colon was 74.4 µM; with OVCAR-3 ovarian, 52.5 µM; with NCI-H460 lung, 47.4 µM; with SK-MEL-2 melanoma, 52.6 µM.

For the molecule `COc1cc2c3c(n(CCCn4cccn4)c(=O)c2cc1OC)-c1cc2c(cc1C3=O)OCO2`, the GI50 with HS 578T breast was 22.7 µM; in the experiment on MOLT-4 leukemia, 0.351 µM; in the experiment on EKVX NSCLC, 8.79 µM; with ACHN renal, 0.396 µM; in the experiment on CAKI-1 renal, 0.577 µM; with SK-MEL-5 melanoma it was 1.48 µM. Also, the GI50 was 14.7 µM in the experiment on HCT-15 colon, 33.7 µM in the experiment on OVCAR-3 ovarian, 0.52 µM in the experiment with NCI-H460 lung and 59.9 µM with SK-MEL-2 melanoma. Further, the TGI with HS 578T breast was over 90.7 µM; in the experiment on MOLT-4 leukemia it was over 35.9 µM; in the experiment with EKVX NSCLC, over 53.1 µM; with ACHN renal it was 5.61 µM; in the experiment on SK-MEL-5 melanoma, 5.24 µM; with HCT-15 colon it was over 100 µM. Moreover, the TGI in the experiment on OVCAR-3 ovarian was over 100 µM; in the experiment on NCI-H460 lung it was 13.3 µM; in the experiment with SK-MEL-2 melanoma, over 100 µM.

For `CN(C)c1ccc2c(SCC(=O)OCC(=O)[C@@]3(O)CC[C@H]4[C@@H]5CCC6=CC(=O)C=C[C@]6(C)[C@H]5C(=O)C[C@@]43C)c3ccc(N(C)C)cc3nc2c1`, the TGI in the experiment with HS 578T breast was over 100 µM; in the experiment on MOLT-4 leukemia, over 100 µM; in the experiment on EKVX NSCLC, over 81.2 µM; in the experiment on ACHN renal, 20 µM; in the experiment with CAKI-1 renal, 60.8 µM; in the experiment with SK-MEL-5 melanoma, over 100 µM. For the same molecule, the TGI is 32.1 µM with HCT-15 colon, over 100 µM with OVCAR-3 ovarian, over 45.7 µM in the experiment on NCI-H460 lung and over 100 µM with SK-MEL-2 melanoma.

Take `CCCCCCCCCCCCCCCC[N+](C)(C)C`: the GI50 in the experiment on HS 578T breast is 0.269 µM and 1.82 µM; in the experiment with MOLT-4 leukemia, 0.157 µM and 1.17 µM; with EKVX NSCLC it was 0.577 µM and 1.59 µM; in the experiment on ACHN renal it was 0.332 µM and 1.44 µM; with CAKI-1 renal it was 2.05 µM; with SK-MEL-5 melanoma, 1.56 µM. Besides, the GI50 in the experiment on HCT-15 colon was 0.383 µM and 1.88 µM; with OVCAR-3 ovarian it was 0.182 µM and 1.16 µM; in the experiment with NCI-H460 lung, 0.204 µM and 1.24 µM; in the experiment with SK-MEL-2 melanoma it was 0.314 µM. Further, the TGI with HS 578T breast is 0.984 µM and 5.46 µM; in the experiment with MOLT-4 leukemia it was 0.346 µM and 2.8 µM; with EKVX NSCLC, 3.17 µM and 4.28 µM; with ACHN renal, 1.61 µM and 4.03 µM; with CAKI-1 renal, 10.7 µM; in the experiment on SK-MEL-5 melanoma, 2.95 µM. For the same molecule, the TGI is 1.85 µM and 10.1 µM with HCT-15 colon; 0.519 µM and 2.81 µM in the experiment on OVCAR-3 ovarian; 0.412 µM and 2.81 µM in the experiment on NCI-H460 lung; 1.17 µM in the experiment with SK-MEL-2 melanoma.

Take `CNC1=C(Br)C(=O)C2=C(C1=O)C1C3=C(C(=O)C=CC3=O)C2c2ccccc21` (stereo not drawn): the GI50 with HS 578T breast was 12.7 µM; with MOLT-4 leukemia, 0.473 µM; in the experiment with EKVX NSCLC, 1.94 µM; in the experiment on ACHN renal it was 2.1 µM; in the experiment with CAKI-1 renal, 6.14 µM; in the experiment with SK-MEL-5 melanoma, 5.52 µM. The GI50 with HCT-15 colon was 2.19 µM; with OVCAR-3 ovarian, 5.29 µM; in the experiment with NCI-H460 lung it was 18.6 µM; in the experiment with SK-MEL-2 melanoma, 11 µM. The TGI in the experiment on HS 578T breast is 70.3 µM; in the experiment on EKVX NSCLC, 3.7 µM; with ACHN renal, 3.9 µM; in the experiment on CAKI-1 renal, 13.9 µM; in the experiment with SK-MEL-5 melanoma it was 18.6 µM; in the experiment on HCT-15 colon, 5.55 µM. Besides, the TGI is 10.9 µM with OVCAR-3 ovarian, over 85.7 µM in the experiment with NCI-H460 lung and over 28.4 µM in the experiment with SK-MEL-2 melanoma.

Take `O=C(Oc1ccccc1Cl)c1cccnc1Nc1ccnc(C(F)(F)F)c1`: the GI50 was 17.3 µM in the experiment with HS 578T breast; 2.52 µM in the experiment on MOLT-4 leukemia; 32.6 µM in the experiment on EKVX NSCLC; 22 µM with ACHN renal; 23.1 µM in the experiment with CAKI-1 renal; 14 µM with SK-MEL-5 melanoma. The GI50 is 14.6 µM with HCT-15 colon, 16.5 µM in the experiment with OVCAR-3 ovarian, 38.4 µM in the experiment on NCI-H460 lung and 6.79 µM with SK-MEL-2 melanoma. Also, the TGI in the experiment with HS 578T breast was found to be 48.9 µM; in the experiment with MOLT-4 leukemia, 8.97 µM; in the experiment with EKVX NSCLC, 84.3 µM; in the experiment on ACHN renal, 50.2 µM; in the experiment on CAKI-1 renal, 50 µM; with SK-MEL-5 melanoma it was 27 µM. In addition, the TGI in the experiment on HCT-15 colon was 29.1 µM; in the experiment with OVCAR-3 ovarian it was 32.6 µM; with NCI-H460 lung, over 100 µM; in the experiment with SK-MEL-2 melanoma, 21.8 µM.

`COc1cc([N+](=O)[O-])c(S(=O)(=O)O)cc1-n1nc(-c2ccccc2)n[n+]1-c1cc(S(=O)(=O)[O-])c([N+](=O)[O-])cc1OC`: the TGI with HS 578T breast, in the experiment on MOLT-4 leukemia, in the experiment with EKVX NSCLC, with ACHN renal, in the experiment on CAKI-1 renal and with SK-MEL-5 melanoma was over 100 µM each time. The TGI in the experiment with HCT-15 colon, in the experiment with OVCAR-3 ovarian, with NCI-H460 lung and in the experiment on SK-MEL-2 melanoma was over 100 µM in each case.

As to `CCCCC/C=C1\CCC(CN2CCOCC2)C1=O` (stereo not drawn), the TGI in the experiment with HS 578T breast was over 100 µM; in the experiment with MOLT-4 leukemia, 7.55 µM; in the experiment on EKVX NSCLC, 29.7 µM; with ACHN renal, 30.1 µM; with CAKI-1 renal, 9.79 µM; in the experiment on SK-MEL-5 melanoma it was 31.1 µM. Besides, the TGI in the experiment with HCT-15 colon was found to be 21.8 µM; in the experiment with OVCAR-3 ovarian, 12.2 µM; in the experiment on NCI-H460 lung it was 49.8 µM; in the experiment on SK-MEL-2 melanoma it was 29.6 µM.

With `C=C(C)[C@@H]1CC[C@]2(c3ncc(C)o3)CC[C@]3(C)[C@H](CC[C@@H]4[C@@](C)(CCC#N)[C@H](C(=C)C)CC[C@]43C)[C@@H]12`, the GI50 was 4.3 µM in the experiment with HS 578T breast; 2.85 µM in the experiment with MOLT-4 leukemia; 3.13 µM with EKVX NSCLC; 4.65 µM in the experiment with ACHN renal; 2.8 µM with CAKI-1 renal; 3.65 µM with SK-MEL-5 melanoma. Moreover, the GI50 with HCT-15 colon is 3.94 µM; in the experiment on OVCAR-3 ovarian it was 4.16 µM; in the experiment with NCI-H460 lung, 5.42 µM; with SK-MEL-2 melanoma, 16.4 µM. Also, the TGI is 19.4 µM in the experiment with HS 578T breast; 9.82 µM in the experiment with MOLT-4 leukemia; 12.6 µM in the experiment with EKVX NSCLC; 17.2 µM in the experiment on ACHN renal; 16.1 µM with CAKI-1 renal; 13.7 µM with SK-MEL-5 melanoma. The TGI came out at 17.1 µM in the experiment on HCT-15 colon, 15.5 µM in the experiment with OVCAR-3 ovarian, 19.4 µM with NCI-H460 lung and 33.7 µM with SK-MEL-2 melanoma.
